Assay results published in patent publication US12091402B2 (Avilar Therapeutics, Inc., priority 2021, dated 2024).
pEC50, pKd: −log10 of the molar value. Read-outs that look alike come from different tables or passages of the source. Where a SMILES comes first, the peptide text is derived from it. Bridges are numbered along the chain shown (N, C = ends). [ ]: non-standard residue; d: D form. Pro(4S-NH2) = N[C@@H]1CN[C@H](C(=O)O)C1

Tests used:
HepG2 cells = experiment: Cellular uptake assay of AF488-labeled antibody (HepG2); type: cell-based; settings: HepG2 cells, 100 nM AF488-labeled antibody, 37° C. for 6 hours; class symbols; read-out: Uptake Assay EC50
Procedure: The cellular uptake assay is designed to measure compound-mediated cellular uptake of fluorescently labeled antibody following ternary complex formation with the ASGPR receptor and endocytosis of the entire complex into cells.
Human IgG (Sigma-Aldrich, 14506) was covalently labeled with Alexa Fluor 488 using the Alexa Fluor™ 488 Protein Labeling Kit (Thermo Fisher, A10235) following the manufacturer's instructions. HepG2 cells were plated in DMEM supplemented with 10% FBS at 5,000 cells per well in a 96-well microtiter plate and incubated for approximately 18 hours at 37° C./5% CO2. For studies using human IgG, 100 nM AF488-labeled human IgG antibodies and serial dilutions of IgG-based degrader (0.1% DMSO final concentration) were added to the cells and the mixture was incubated at 37° C. for 6 hours. For studies using DNP, 100 nM AF488-labeled DNP antibodies and serial dilutions of DNP-based degrader (0.1% DMSO final concentration) were added to the cells and the mixture was incubated at 37° C. for 6 hours. HepG2 cells were fixed in 100% methanol at −20° C. for 20 min, washed 3× with PBS, then stained with DAPI (Thermo, Cat #H3570). HepG2 cells were imaged for DAPI and Alexa Fluor 488 using the Operetta CLS, high-content analysis system (PerkinElmer). Data is presented as the ratio of the number of cells positive for hIgG or DNP (AF-488 fluorescence) over the total cell number (measured by DAPI).

IgG = experiment: Affinity to IgG by surface plasmon resonance (SPR); type: binding
Procedure: Immobilization levels ranging from 1000-1300 resonance units (RU) are obtained. The running buffer is 10 mM HEPES, pH 7.4, 400 mM NaCl, 0.005% P20, […].

ASGPR = molecular target: T1, ASGPR (Homo sapiens, UniProt P07306); experiment: Affinity to ASGPR by surface plasmon resonance (SPR)
T1 sequence (P07306 1-291): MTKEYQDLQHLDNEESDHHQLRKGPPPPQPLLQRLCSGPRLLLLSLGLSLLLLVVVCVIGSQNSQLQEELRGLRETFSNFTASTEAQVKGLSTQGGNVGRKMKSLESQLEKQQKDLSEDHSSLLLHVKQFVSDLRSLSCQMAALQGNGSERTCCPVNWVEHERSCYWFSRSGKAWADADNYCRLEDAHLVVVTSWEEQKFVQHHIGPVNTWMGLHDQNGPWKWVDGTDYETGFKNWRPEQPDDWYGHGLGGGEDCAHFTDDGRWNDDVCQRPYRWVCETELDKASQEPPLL

[1] = Biacore 8K, 25° C., IgG on CM5 chip, read-out: IgG SPR Binding Kd

## CC(C)C[C@@H]1NC(=O)[C@H](Cc2c[nH]cn2)NC(=O)[C@H](Cc2c[nH]c3ccccc23)NC(=O)[C@H](C)NC(=O)[C@@H]2CSSC[C@H](NC(=O)[C@H](Cc3c[nH]c4ccccc34)NC(=O)[C@H](C(C)C)NC(=O)[C@H](CC(C)C)NC(=O)[C@H](CCC(=O)O)NC(=O)CNC1=O)C(=O)N[C@@H]([C@@H](C)O)C(=O)N1CCC[C@@H]1C(=O)N1C[C@@H](NC(=O)CCOCCOCCNC(=O)CCCc3cn(C[C@@]45CO[C@@H](O4)[C@H](Nc4nc(Cl)ns4)[C@@H](O)[C@H]5O)nn3)C[C@H]1C(=O)N[C@@H](CC(=O)O)C(=O)N2 [Compound 13]
HepG2 cells
  pEC50: 6.30 to 7.00

## CC(C)C[C@@H]1NC(=O)[C@H](Cc2cnc[nH]2)NC(=O)[C@H](Cc2c[nH]c3ccccc23)NC(=O)[C@H](C)NC(=O)[C@@H]2CSSC[C@H](NC(=O)[C@H](Cc3c[nH]c4ccccc34)NC(=O)[C@H](C(C)C)NC(=O)[C@H](CC(C)C)NC(=O)[C@H](CCC(=O)O)NC(=O)CNC1=O)C(=O)N[C@@H]([C@@H](C)O)C(=O)N1CCC[C@@H]1C(=O)N1C[C@@H](N)C[C@H]1C(=O)N[C@@H](C)C(=O)N2 [Intermediate 12]
IgG; [1]
  pKd: > 7.00
IgG; SPR, read-out: IgG KD
  pKd: > 7.00

## CC(C)C[C@@H]1NC(=O)[C@H](Cc2c[nH]cn2)NC(=O)[C@H](Cc2c[nH]c3ccccc23)NC(=O)[C@H](C)NC(=O)[C@@H]2CSSC[C@H](NC(=O)[C@H](Cc3c[nH]c4ccccc34)NC(=O)[C@H](C(C)C)NC(=O)[C@H](CC(C)C)NC(=O)[C@H](CCC(=O)O)NC(=O)CNC1=O)C(=O)N[C@@H]([C@@H](C)O)C(=O)N1CCC[C@@H]1C(=O)N1C[C@@H](NC(=O)CCOCCOCCNC(=O)CCCc3cn(CCCCCC(=O)NC(COCCC(=O)NCCOCCOCCOCCOC[C@H]4OC[C@H](Nc5nccc(C(F)(F)F)n5)[C@@H](O)[C@H]4O)COCCC(=O)NCCOCCOCCOCCOC[C@H]4OC[C@H](Nc5nccc(C(F)(F)F)n5)[C@@H](O)[C@H]4O)nn3)C[C@H]1C(=O)N[C@@H](CC(=O)O)C(=O)N2 [Compound 12]
HepG2 cells
  pEC50: > 7.00

## C#CCCCC(=O)NCCOCCOCCOCCOCCC(=O)N[C@H]1C[C@H]2C(=O)N[C@@H](CC(=O)O)C(=O)N[C@H]3CSSC[C@H](NC(=O)[C@H](Cc4c[nH]c5ccccc45)NC(=O)[C@H](C(C)C)NC(=O)[C@H](CC(C)C)NC(=O)[C@H](CCC(=O)O)NC(=O)CNC(=O)[C@H](CC(C)C)NC(=O)[C@H](Cc4cnc[nH]4)NC(=O)[C@H](Cc4c[nH]c5ccccc45)NC(=O)[C@H](C)NC3=O)C(=O)N[C@@H]([C@@H](C)O)C(=O)N3CCC[C@@H]3C(=O)N2C1 [Intermediate 4]
IgG; [1]
  pKd: > 7.00
IgG; SPR, read-out: IgG KD
  pKd: > 7.00

## CC(C)C[C@@H]1NC(=O)[C@H](Cc2cnc[nH]2)NC(=O)[C@H](Cc2c[nH]c3ccccc23)NC(=O)[C@H](C)NC(=O)[C@@H]2CSSC[C@H](NC(=O)[C@H](Cc3c[nH]c4ccccc34)NC(=O)[C@H](C(C)C)NC(=O)[C@H](CC(C)C)NC(=O)[C@H](CCC(=O)O)NC(=O)CNC1=O)C(=O)N[C@@H]([C@@H](C)O)C(=O)N1CCC[C@@H]1C(=O)N1C[C@H](N)C[C@H]1C(=O)N[C@@H](CC(=O)O)C(=O)N2 [Intermediate 30]
IgG; SPR, read-out: IgG KD
  pKd: > 7.00

## CC(C)C[C@@H]1NC(=O)[C@H](Cc2cnc[nH]2)NC(=O)[C@H](Cc2c[nH]c3ccccc23)NC(=O)[C@H](C)NC(=O)[C@@H]2CSSC[C@H](NC(=O)[C@H](Cc3c[nH]c4ccccc34)NC(=O)[C@H](C(C)C)NC(=O)[C@H](CC(C)C)NC(=O)[C@H](CCC(=O)N(C)C)NC(=O)CNC1=O)C(=O)N[C@@H]([C@@H](C)O)C(=O)N1CCC[C@@H]1C(=O)N1C[C@@H](N)C[C@H]1C(=O)N[C@@H](CC(=O)O)C(=O)N2 [Intermediate 23]
IgG; [1]
  pKd: > 7.00
IgG; SPR, read-out: IgG KD
  pKd: > 7.00

## CC(C)C[C@@H]1NC(=O)[C@H](Cc2cnc[nH]2)NC(=O)[C@H](Cc2c[nH]c3ccccc23)NC(=O)[C@H](C)NC(=O)[C@@H]2CSSC[C@H](NC(=O)[C@H](Cc3c[nH]c4ccccc34)NC(=O)[C@H](C(C)C)NC(=O)[C@H](CC(C)C)NC(=O)[C@H](CCC(=O)O)NC(=O)CNC1=O)C(=O)N[C@@H]([C@@H](C)O)C(=O)N1CCC[C@@H]1C(=O)N1C[C@@H](NC(=O)CCCc3cn(C[C@H]4OC[C@H](Nc5nccc(C(F)(F)F)n5)[C@@H](O)[C@H]4O)nn3)C[C@H]1C(=O)N[C@@H](CC(=O)O)C(=O)N2 [Compound 80]
IgG; SPR, read-out: IgG KD
  pKd: > 7.00
ASGPR
  pKd: < 6.00

## C#CCCCC(=O)NCCOCCOCCOCCOCCC(=O)N[C@@H](CC(=O)O)C(=O)N[C@H]1CSSC[C@@H](C(=O)N[C@H](C(N)=O)[C@@H](C)O)NC(=O)[C@H](Cc2c[nH]c3ccccc23)NC(=O)[C@H](C(C)C)NC(=O)[C@H](CC(C)C)NC(=O)[C@H](CCC(=O)O)NC(=O)CNC(=O)[C@H](CC(C)C)NC(=O)[C@H](Cc2cnc[nH]2)NC(=O)[C@H](Cc2c[nH]c3ccccc23)NC(=O)[C@H](C)NC1=O [Intermediate 1]
IgG; [1]
  pKd: > 7.00
IgG; SPR, read-out: IgG KD
  pKd: > 7.00

## CC(C)C[C@@H]1NC(=O)[C@H](Cc2cnc[nH]2)NC(=O)[C@H](Cc2c[nH]c3ccccc23)NC(=O)[C@H](C)NC(=O)[C@@H]2CSSC[C@H](NC(=O)[C@H](Cc3c[nH]c4cc(Cl)ccc34)NC(=O)[C@H](C(C)C)NC(=O)[C@H](CC(C)C)NC(=O)[C@H](CCC(=O)O)NC(=O)CNC1=O)C(=O)N[C@@H]([C@@H](C)O)C(=O)N1CCC[C@@H]1C(=O)N1C[C@@H](N)C[C@H]1C(=O)N[C@@H](CC(=O)O)C(=O)N2 [Intermediate 19]
IgG; [1]
  pKd: > 7.00
IgG; SPR, read-out: IgG KD
  pKd: > 7.00

## C#CCCCC(=O)NCCOCCOCCOCCC(=O)N[C@H]1C[C@H]2C(=O)N[C@@H](CC(=O)O)C(=O)N[C@H]3CSSC[C@H](NC(=O)[C@H](Cc4c[nH]c5ccccc45)NC(=O)[C@H](C(C)C)NC(=O)[C@H](CC(C)C)NC(=O)[C@H](CCC(=O)O)NC(=O)CNC(=O)[C@H](CC(C)C)NC(=O)[C@H](Cc4cnc[nH]4)NC(=O)[C@H](Cc4c[nH]c5ccccc45)NC(=O)[C@H](C)NC3=O)C(=O)N[C@@H]([C@@H](C)O)C(=O)N3CCC[C@@H]3C(=O)N2C1 [Intermediate 9]
IgG; [1]
  pKd: > 7.00

## CC(C)C[C@@H]1NC(=O)[C@H](Cc2c[nH]cn2)NC(=O)[C@H](Cc2c[nH]c3ccccc23)NC(=O)[C@H](C)NC(=O)[C@@H]2CSSC[C@H](NC(=O)[C@H](Cc3c[nH]c4ccccc34)NC(=O)[C@H](C(C)C)NC(=O)[C@H](CC(C)C)NC(=O)[C@H](CCC(=O)O)NC(=O)CNC1=O)C(=O)N[C@@H]([C@@H](C)O)C(=O)N1CCC[C@@H]1C(=O)N1C[C@@H](NC(=O)CCOCCOCCOCCOCCNC(=O)CCCc3cn(CCCCCC(=O)NC(COCCC(=O)NCCOCCOCCOCCOC[C@@]45CO[C@@H](O4)[C@H](Nc4nc(Cl)ns4)[C@@H](O)[C@H]5O)COCCC(=O)NCCOCCOCCOCCOC[C@@]45CO[C@@H](O4)[C@H](Nc4nc(Cl)ns4)[C@@H](O)[C@H]5O)nn3)C[C@H]1C(=O)N[C@@H](CC(=O)O)C(=O)N2 [Compound 14]
HepG2 cells
  pEC50: > 7.00

## CC(C)C[C@@H]1NC(=O)[C@H](C)NC(=O)CNC(=O)[C@H](CC(C)C)NC(=O)[C@H](Cc2cnc[nH]2)NC(=O)[C@H](Cc2c[nH]c3ccccc23)NC(=O)[C@H](C)NC(=O)[C@@H]2CSSC[C@H](NC(=O)[C@H](Cc3c[nH]c4ccccc34)NC(=O)[C@H](C(C)C)NC1=O)C(=O)N[C@@H]([C@@H](C)O)C(=O)N1CCC[C@@H]1C(=O)N1C[C@@H](N)C[C@H]1C(=O)N[C@@H](CC(=O)O)C(=O)N2 [Intermediate 17] (cyclo(ALVWCT[dP][Pro(4S-NH2)]DCAWHLG); disulfide 5-10)
IgG; [1]
  pKd: > 7.00
IgG; SPR, read-out: IgG KD
  pKd: > 7.00

## CC(C)C[C@@H]1NC(=O)[C@H](C)NC(=O)CNC(=O)[C@H](CC(C)C)NC(=O)[C@H](Cc2cnc[nH]2)NC(=O)[C@H](Cc2c[nH]c3ccccc23)NC(=O)[C@H](C)NC(=O)[C@@H]2CSSC[C@H](NC(=O)[C@H](Cc3c[nH]c4ccccc34)NC(=O)[C@H](C(C)C)NC1=O)C(=O)N[C@@H]([C@@H](C)O)C(=O)N1CCC[C@@H]1C(=O)N1C[C@@H](N)C[C@H]1C(=O)N[C@@H](C)C(=O)N2 [Intermediate 25] (cyclo(ACAWHLGALVWCT[dP][Pro(4S-NH2)]); disulfide 2-12)
IgG; [1]
  pKd: > 7.00
IgG; SPR, read-out: IgG KD
  pKd: > 7.00
